Laboratory results as given in article PMC4854767 (Clinical cancer research : an official journal of the …, 2016).
Where two headings read alike, the source gives them in different places.

Legend:
MCF-7 cells [1] = assay: Sulforhodamine B; assay type: cell-based, human
MCF-7 tumors [2] = assay: MCF-7 xenograft tumor volume study; assay type: in vivo, mice
[3] = test system: HCI-003 patient-derived breast cancer xenografts; assay: HCI-003 patient-derived xenograft tumor volume study; assay type: in vivo, mice; conditions: fulv alone; HCI-003 xenografts
[4] = test system: chronic eosinophilic leukemia; conditions: weekly dosing; cited from earlier work
[5] = GDC-0941 intratumor pharmacokinetics in mice bearing MCF-7 xenografts; assay type: in vivo; conditions: for time of peak intratumor concentration: fulv pretreatment
MCF-7 cells [6] = assay: Caspase-3/7-activatable luciferase reporter in MCF-7 cells; assay type: cell-based, human; conditions: 1 µM fulv for 2 d before 1 µM GDC-0941 for 12, 24 or 36 h, combination
ZR75-1 cells = assay: Caspase-3/7-activatable luciferase reporter in ZR75-1 cells; assay type: cell-based, human; conditions: 1 µM fulv for 2 d before 1 µM GDC-0941 for 12 or 24 h, combination
MCF-7 tumors [7] = conditions: for peak apoptosis, tumor cells (TUNEL): in combination with fulv
in vivo = conditions: NOD-scid/IL2Rγ−/− (NSG; NOD.Cg-Prkdcscid Il2rgtm1Wjl/SzJ), mouse, plasma, po, 800 mg/kg
[8] = GDC-0941 plasma pharmacokinetics in mice
[9] = low-dose (100 mg/kg), single dose

For `C[C@]12CC[C@@H]3c4ccc(O)cc4C[C@@H](CCCCCCCCC[S+]([O-])CCCC(F)(F)C(F)(F)F)[C@H]3[C@@H]1CC[C@@H]2O` (stereo partly drawn) [fulv], the “growth of MCF-7 cells” value (MCF-7 cells [1]; single-agent fulv (1 µM)) was “effectively inhibited growth”, the tumor response (MCF-7 tumors [2]; fulv alone, larger MCF-7 tumors (500–1,000 mm^3)) was “generally unresponsive” and the tumor growth [3] was “did not affect tumor growth”.
For `Cc1ccc(NC(=O)c2ccc(CN3CCN(C)CC3)cc2)cc1Nc1nccc(-c2cccnc2)n1` [imatinib], the “patients in whom recurrence was prevented” value [4] is given as 7/7.
In the case of `CS(=O)(=O)N1CCN(Cc2cc3nc(-c4cccc5[nH]ncc45)nc(N4CCOCC4)c3s2)CC1` [GDC-0941], the “duration of exposure required to appreciably decrease viability” value (MCF-7 cells [1]; MCF-7 cells, GDC-0941 ≤0.25 µM) was at least 24 h, the growth inhibition (MCF-7 cells [1]; MCF-7 cells, continuous exposure to 1–2 µM GDC-0941) was “near-complete growth inhibition” and the “time until intratumor concentration below the detectable limit” value ([5]; high-dose (800 mg/kg)) was at most 72 h. The “time of peak intratumor concentration” value ([5]; high-dose (800 mg/kg)) was 9 h, the “time at which drug was undetectable in tumor” value ([5]; low-dose (100 mg/kg) with a second dose at 12 h) was 36 h and the “time at which drug was undetectable in tumor” value [5, 9] was 18 h. The “time of peak intratumor concentration” value [5, 9] was 9 h, the “time of peak intratumor concentration” value ([5]; two low-dose treatments (100 mg/kg at 0 and 12 h)) was 21 h and the tumor response (MCF-7 tumors [2]; combination of fulv and GDC-0941, regardless of dose/schedule, MCF-7 tumors) was “near-complete tumor regression in most cases”. For the same molecule, the body weight (MCF-7 tumors [2]; single-agent GDC-0941, different doses/schedules) was “without notable loss of body weight”, the tumor growth (MCF-7 tumors [2]; single-agent GDC-0941, different doses/schedules, MCF-7 tumors 500–1,000 mm^3) was “only slowed tumor growth” and the caspase-3/7 reporter activity (MCF-7 cells [6]) was “increased caspase-3/7 reporter activity compared to either agent alone”. For the same molecule, the caspase-3/7 reporter activity (ZR75-1 cells) was “increased caspase-3/7 reporter activity compared to either agent alone”, the “maintained apoptosis (TUNEL)” value (MCF-7 tumors [7]; fulv plus bi-daily low-dose GDC-0941 (3 d on, 4 d off), until 72 h) was ~ 10% and the “apoptosis (TUNEL)” value (MCF-7 tumors [7]; fulv plus daily low-dose GDC-0941, maintained for 72 h) was 8–10%. For the same molecule, the “peak apoptosis, tumor cells (TUNEL)” value (MCF-7 tumors [7]; one low dose (100 mg/kg) GDC-0941, at 24 h) was 6.7%, the “peak apoptosis, tumor cells (TUNEL)” value (MCF-7 tumors [7]; single high-dose (800 mg/kg) GDC-0941, at 48 h) was 30.1% and the “peak apoptosis, tumor cells (TUNEL)” value (MCF-7 tumors [7]; two low doses (100 mg/kg at 0 and 12 h) GDC-0941, at 24 h) was 15.9%. For the same molecule, the Tmax (in vivo) was 15 to 30 min, the “time until plasma concentration below the limit of detection” value ([8]; 100 mg/kg) was at most 24 h and the “plasma concentration in plateau phase” value ([8]; 100 mg/kg, plateau after 1 h, maintained for 8 h) was 6.8 to 10.7 µM. For the same molecule, the “time until plasma concentration below detectable limits” value ([8]; 800 mg/kg) was at most 72 h and the “plasma concentration in plateau phase” value ([8]; 800 mg/kg, plateau maintained through 24 h) was 7.9 to 15 µM.
